From patent publication US4738971A, “N-aryl-1,2-dihydro-4-substituted-1-alkyl-2-oxo-quinoline-3-carboxamides” (priority 1981, dated 1988)

What follows are molecules tested on delayed hypersensitivity reaction (pertussis vaccine pleurisy) (assay: pertussis vaccine pleurisy test in rats). Conditions: 10 mg/kg p.o.
Assay type: in vivo, rat (male Sprague-Dawley)
Description: A useful test for the evaluation of the effect of chemical compounds on the immune system is the pertussis vaccine pleurisy test in rats. Compounds which enhance the response in this delayed hypersensitivity reaction are considered to stimulate cell-mediated immunity (4).
This example illustrates the effect of the compounds of the general formula I in the pertussis vaccine pleurisy test.
Pertussis vaccine pleurisy is a useful test for the evaluation of the effect of chemical compounds on the immune system. Compounds which enhance the response in this delayed hypersensitivity reaction are considered to stimulate cell-mediated immunity.
A modification of a method described in (4) was used. Male Sprague-Dawley rats weighing 250-275 g were used. At least ten animals were used in each group.
Equal volumes of Freund's incomplete adjuvant and a suspension of heat killed Bordetella pertussis organisms were mixed. To sensitize animals, day 0, 0.2 ml of a mixture containing 0.036×10^10 organisms/ml was injected into the dorsal surface of one hind paw and one forepaw.
The animals were challenged on day 12 with 0.1 ml of a mixture containing 0.25×10^10 organisms/ml that was injected intrapleurally. 48 hours after challenge, day 14, the volume of the exudate in the pleural cavity was measured.
The substances suspended in aqueous methocel solution 10 ml/kg were given intragastrically once daily from day 10 to day 13. The control groups were given methocel solution 10 ml/kg.
The effect of the substances was assessed by the exudate volume expressed in percent after comparison with the control groups.

Row | Structure (SMILES) | significant enhancing effect in the pertussis vaccine pleurisy test
1 | Cn1c(=O)c(C(=O)Nc2ccc(O)cc2)c(O)c2ccccc21 [1:13, N-/4-hydroxyphenyl/-1,2-dihydro-4-hydroxy-1-methyl-2-oxo-quinoline-3-carboxamide] | significant enhancing effect
2 | CN(C(=O)c1c(N)c2ccccc2n(C)c1=O)c1ccccc1 [10:5, N-methyl-N-phenyl-4-amino-1,2-dihydro-1-methyl-2-oxo-quinoline-3-carboxamide] | significant enhancing effect
3 | CNc1c(C(=O)N(C)c2ccccc2)c(=O)n(C)c2ccccc12 [10:6, N-methyl-N-phenyl-1,2-dihydro-1-methyl-4-methylamino-2-oxo-quinoline-3-carboxamide] | significant enhancing effect
4 | COc1ccc(N(C)C(=O)c2c(N)c3ccccc3n(C)c2=O)cc1 [10:12, N-(4-methoxyphenyl)-N-methyl-4-amino-1,2-dihydro-1-methyl-2-oxo-quinoline-2-carboxamide] | significant enhancing effect
5 | CN(C(=O)c1c(N)c2ccccc2n(C)c1=O)c1ccc(Cl)cc1 [10:13, N-(4-chlorophenyl)-N-methyl-4-amino-1,2-dihydro-1-methyl-2-oxo-quinoline-3-carboxamide] | significant enhancing effect
6 | CN(C(=O)c1c(N)c2ccccc2n(C)c1=O)c1nccs1 [10:17, N-methyl-N-(2-thiazolyl)-4-amino-1,2-dihydro-1-methyl-2-oxo-quinoline-3-carboxamide] | significant enhancing effect
7 | Nc1c(C(=O)Nc2ccccc2)c(=O)n2c3c(cccc13)CC2 [10:20, N-phenyl-4-amino-1,2-dihydro-1,8-ethylene-2-oxo-quinoline-3-carboxamide] | significant enhancing effect
8 | CN(C(=O)c1c(O)c2cccc3c2n(c1=O)CCC3)c1ccccc1 [19:1, N-methyl-N-phenyl-1,2-dihydro-4-hydroxy-2-oxo-1,8-trimethylene-quinoline-3-carboxamide] | significant enhancing effect
9 | CN(C(=O)c1c(O)c2cccc3c2n(c1=O)CCC3)c1ccc(F)cc1 [19:2, N-(4-fluorophenyl)-N-methyl-1,2-dihydro-hydroxy-2-oxo-1,8-trimethylene-quinoline-3-carboxamide] | significant enhancing effect
10 | C=CCn1c(=O)c(C(=O)N(C)c2ccccc2)c(O)c2ccccc21 [20:1, N-methyl-N-phenyl-1,2-dihydro-1-allyl-4-hydroxy-2-oxo-quinoline-3-carboxamide] | significant enhancing effect
11 | CN(C(=O)c1c(O)c2ccc(Cl)cc2n(C)c1=O)c1ccccc1 [20:2, N-methyl-N-phenyl-7-chloro-1,2-dihydro-4-hydroxy-1-methyl-2-oxo-quinoline-3-carboxamide] | significant enhancing effect
12 | CN(C)c1ccc2c(c1)c(O)c(C(=O)N(C)c1ccccc1)c(=O)n2C [20:3, N-methyl-N-phenyl-1,2-dihydro-6-dimethylamino-4-hydroxy-1-methyl-2-oxo-quinoline-3-carboxamide] | significant enhancing effect
13 | COc1ccc2c(c1)c(O)c(C(=O)N(C)c1ccc(Cl)cc1)c(=O)n2C [20:4, N-(4-chloro-phenyl)-N-methyl-1,2-dihydro-4-hydroxy-6-methoxy-1-methyl-2-oxo-quinoline-3-carboxamide] | significant enhancing effect
14 | CCN(CC)c1ccc(N(C)C(=O)c2c(O)c3ccccc3n(C)c2=O)cc1 [20:20, N-methyl-N-/4-diethylaminophenyl/-1,2-dihydro-4-hydroxy-1-methyl-2-oxo-quinoline-3-carboxamide] | significant enhancing effect
15 | CN(C(=O)c1c(O)c2ccccc2n(C)c1=O)c1ccc(N2CCCC2)cc1 [20:21, N-methyl-N-/4-pyrrolidinophenyl/-1,2-dihydro-4-hydroxy-1-methyl-2-oxo-quinoline-3-carboxamide] | significant enhancing effect
16 | COCCN(C(=O)c1c(O)c2ccccc2n(C)c1=O)c1cnccn1 [20:54, N-(2-methoxy-ethyl)-N-pyrazinyl-1,2-dihydro-4-hydroxy-1-methyl-2-oxo-quinoline-3-carboxamide] | significant enhancing effect
17 | CN(C(=O)c1c(O)c2ccccc2n(C)c1=O)c1ncc[nH]1 [20:74, N-(2-imidazolyl)-N-methyl-1,2-dihydro-4-hydroxy-1-methyl-2-oxo-quinoline-3-carboxamide] | significant enhancing effect
18 | Cc1cc(N(C)C(=O)c2c(O)c3ccccc3n(C)c2=O)sn1 [20:78, N-methyl-N-(3-methyl-5-isothiazolyl)-1,2-dihydro-4-hydroxy-1-methyl-2-oxo-quinoline-3-carboxamide] | significant enhancing effect
19 | CN(C(=O)c1c(O)c2ccccc2n(C)c1=O)c1ccc(C(=O)O)cc1 [21:13, N-(4-carboxyphenyl)-N-methyl-1,2-dihydro-4-hydroxy-1-methyl-2-oxo-quinoline-3-carboxamide] | significant enhancing effect

Same assay, conditions: Rattus norvegicus, po, 48 h; 10 mg/kg p.o., once daily day 10 to day 13, vs control; preliminary; read-out: Enhancement of the delayed hypersensitivity reaction assessed by the exudate vol.

Row | Structure (SMILES) | change in vivo at 10 mg/kg [%]
20 | Cc1ccc(-n2c(=O)c(C(=O)Nc3ccccc3)c(O)c3ccccc32)cc1 [1:50, N-phenyl-1,2-dihydro-4-hydroxy-1-(4-methylphenyl)-2-oxo-quinoline-3-carboxamide] | 46
21 | Cc1cc(NC(=O)c2c(O)c3ccccc3n(C)c2=O)sn1 [7:28, N-(3-methyl-5-isothiazolyl)-1,2-dihydro-4-hydroxy-1-methyl-2-oxo-quinoline-3-carboxamide] | 61
22 | CN(C)c1ccc(NC(=O)c2c(O)c3cccc4c3n(c2=O)CCC4)cc1 [13:7, N-(4-dimethylaminophenyl)-1,2-dihydro-4-hydroxy-2-oxo-1,8-trimethylene-quinoline-3-carboxamide] | 21
23 | O=C(Nc1cnccn1)c1c(O)c2cccc3c2n(c1=O)CCC3 [14:17, N-pyrazinyl-1,2-dihydro-4-hydroxy-2-oxo-1,8-trimethylene-quinoline-3-carboxamide] | 27
